From PubChem BioAssay AID1259407 (Chemical Carcinogenesis Research Information System (CCRIS), 2018)
The source made the active and inactive calls. No rule for the calls is given here.

Test system: CCRIS mutagenicity, Ames/micronucleus/aberration tests
Assay: CCRIS mutagenicity studies
Conditions: Test System: AMES SALMONELLA TYPHIMURIUM
[1] = Strain/Indicator: TA98, Metabolic Activation: NONE, Method: STANDARD PLATE
[2] = Strain/Indicator: TA100, Metabolic Activation: NONE, Method: STANDARD PLATE
[3] = Strain/Indicator: TA1538, Metabolic Activation: NONE, Method: STANDARD PLATE

SMILES: CN(C)N=Nc1ccc(Cl)cc1
- mutagenic call (Strain/Indicator: G46, Metabolic Activation: RAT, LIVER, S-9, PHENOBARBITAL, Method: STANDARD PLATE): active; positive
- mutagenic call (Strain/Indicator: TA92, Metabolic Activation: MOUSE, LIVER, S-9, POLYCHLORINATED BIPHENYLS, Method: PREINCUBATION): inactive; negative
- mutagenic call (Strain/Indicator: TA92, Metabolic Activation: MOUSE, LIVER, S-9, POLYCHLORINATED BIPHENYLS, Method: STANDARD PLATE): inactive; negative
- mutagenic call (Strain/Indicator: TA92, Metabolic Activation: NONE, Method: STANDARD PLATE): inactive; negative
- mutagenic call (Strain/Indicator: TA97, Metabolic Activation: MOUSE, LIVER, S-9, POLYCHLORINATED BIPHENYLS, Method: PREINCUBATION): active; positive
- mutagenic call (Strain/Indicator: TA97, Metabolic Activation: MOUSE, LIVER, S-9, POLYCHLORINATED BIPHENYLS, Method: STANDARD PLATE): active; positive
- mutagenic call (Strain/Indicator: TA97, Metabolic Activation: NONE, Method: STANDARD PLATE): inactive; negative
- mutagenic call (Strain/Indicator: TA98, Metabolic Activation: MOUSE, LIVER, S-9, POLYCHLORINATED BIPHENYLS, Method: PREINCUBATION): active; positive
- mutagenic call (Strain/Indicator: TA98, Metabolic Activation: MOUSE, LIVER, S-9, POLYCHLORINATED BIPHENYLS, Method: STANDARD PLATE): active; positive
- mutagenic call [1]: active; positive
- mutagenic call (Strain/Indicator: TA100, Metabolic Activation: MOUSE, LIVER, S-9, POLYCHLORINATED BIPHENYLS, Method: PREINCUBATION): active; positive
- mutagenic call (Strain/Indicator: TA100, Metabolic Activation: MOUSE, LIVER, S-9, POLYCHLORINATED BIPHENYLS, Method: STANDARD PLATE): inactive; negative
- mutagenic call [2]: inactive; negative
- mutagenic call (Strain/Indicator: TA1535, Metabolic Activation: MOUSE, LIVER, S-9, POLYCHLORINATED BIPHENYLS, Method: PREINCUBATION): active; positive
- mutagenic call (Strain/Indicator: TA1535, Metabolic Activation: MOUSE, LIVER, S-9, POLYCHLORINATED BIPHENYLS, Method: STANDARD PLATE): inactive; negative
- mutagenic call (Strain/Indicator: TA1535, Metabolic Activation: NONE, Method: STANDARD PLATE): inactive; negative
- mutagenic call (Strain/Indicator: TA1537, Metabolic Activation: MOUSE, LIVER, S-9, POLYCHLORINATED BIPHENYLS, Method: PREINCUBATION): active; positive
- mutagenic call (Strain/Indicator: TA1537, Metabolic Activation: MOUSE, LIVER, S-9, POLYCHLORINATED BIPHENYLS, Method: STANDARD PLATE): active; positive
- mutagenic call (Strain/Indicator: TA1537, Metabolic Activation: NONE, Method: STANDARD PLATE): active; positive
- mutagenic call (Strain/Indicator: TA1538, Metabolic Activation: MOUSE, LIVER, S-9, POLYCHLORINATED BIPHENYLS, Method: PREINCUBATION): active; positive
- mutagenic call (Strain/Indicator: TA1538, Metabolic Activation: MOUSE, LIVER, S-9, POLYCHLORINATED BIPHENYLS, Method: STANDARD PLATE): active; positive
- mutagenic call [3]: inactive; negative

SMILES: CC(=O)N[C@@H](CSC(Cl)=C(Cl)Cl)C(=O)O
- mutagenic call (Strain/Indicator: TA100, Metabolic Activation: NONE, Method: PREINCUBATION): active; positive
- mutagenic call (Strain/Indicator: TA100, Metabolic Activation: RAT, KIDNEY, CYTOSOL, Method: PREINCUBATION): active; positive

SMILES: O=C(C(Cl)Cl)C(Cl)Cl
- mutagenic call [1]: active; positive
- mutagenic call [2]: active; positive

SMILES: COc1ccc(N=Nc2ccc(N(C)C)cc2)cc1
- mutagenic call [1]: active; positive
- mutagenic call (Strain/Indicator: TA98, Metabolic Activation: RAT LIVER S-9, AROCLOR 1254, Method: STANDARD PLATE): active; positive
- mutagenic call [3]: active; positive
- mutagenic call (Strain/Indicator: TA1538, Metabolic Activation: RAT LIVER S-9, AROCLOR 1254, Method: STANDARD PLATE): active; positive
